Measurements reported in DBAASP.
≈ marks a conversion by molar mass, not a printed value. Values belong to the compound of their own block, whether it stands above or below them.

Tests used:
Assay in all cases: ≥ marks a high value that may be exact or a test limit, other limits are often not marked, values filed in µg/mL are converted to µM
Escherichia coli BW25113 = system: Escherichia coli BW25113
Escherichia coli = system: Escherichia coli
[1] = system: Staphylococcus epidermidis
Leuconostoc lactis = system: Leuconostoc lactis
Listeria innocua = system: Listeria innocua
Micrococcus luteus = system: Micrococcus luteus
Enterococcus faecalis = system: Enterococcus faecalis
Bacillus cereus = system: Bacillus cereus
Streptococcus uberis = system: Streptococcus uberis
Staphylococcus aureus = system: Staphylococcus aureus
Pasteurella multocida = system: Pasteurella multocida
Escherichia coli K88 = system: Escherichia coli K88
[2] = system: Staphylococcus epidermidis ATCC 12228
Escherichia coli UB1005 = system: Escherichia coli UB1005
[3] = system: Escherichia coli CVCC 1515
[4] = system: Salmonella enterica subsp. enterica serovar Typhimurium ATCC 14028
[5] = system: Pseudomonas aeruginosa ATCC 27853
Botrytis cinerea = system: Botrytis cinerea
[6] = system: Staphylococcus aureus ATCC 12600
[7] = system: Escherichia coli ATCC 11775
[8] = system: Candida albicans ATCC 10231
Pseudomonas aeruginosa = system: Pseudomonas aeruginosa
Bacillus subtilis 168 = system: Bacillus subtilis 168
[9] = system: Micrococcus luteus CCM 144
[10] = system: Candida albicans F7-39/IDE99
Escherichia coli B = system: Escherichia coli B
[11] = system: Staphylococcus aureus ATCC 6538P
[12] = system: Klebsiella pneumoniae ATCC 10031
[13] = system: Micrococcus luteus ATCC 10240
[14] = system: Bacillus subtilis ATCC 6633
[15] = system: Shigella dysenteriae ATCC 9752
[16] = system: Escherichia coli ATCC 25922
[17] = system: Staphylococcus aureus ATCC 43300

Structure (SMILES): CC[C@H](C)[C@H](NC(=O)[C@H](C)NC(=O)[C@H](CCC(=O)O)NC(=O)[C@H](Cc1cnc[nH]1)NC(=O)[C@@H](N)Cc1ccccc1)C(=O)N[C@@H](C)C(=O)N1CCC[C@H]1C(=O)N[C@H](C(=O)N[C@H](C(=O)N[C@@H](Cc1cnc[nH]1)C(=O)N[C@@H](C)C(=O)N[C@@H](C)C(=O)N[C@H](C(=O)N[C@@H](CCCCN)C(=O)N[C@@H](C)C(=O)N[C@@H](CC(C)C)C(=O)N[C@H](C(=O)NCC(=O)N[C@@H](Cc1ccccc1)C(=O)N[C@@H](CC(C)C)C(=O)NCC(N)=O)C(C)C)C(C)C)C(C)C)C(C)C [FHEAIAPVVHAAVKALVGFLG]
MIC (Escherichia coli): > 46.6 µM
MIC [1]: ≥ 46.6 µM
MIC (Leuconostoc lactis): 23.3 µM (≈ 50 µg/mL)
MIC (Listeria innocua): ≥ 46.6 µM
MIC (Micrococcus luteus): ≥ 46.6 µM
MIC (Enterococcus faecalis): ≥ 46.6 µM
MIC (Bacillus cereus): ≥ 46.6 µM
MIC (Streptococcus uberis): ≥ 46.6 µM
MIC (Staphylococcus aureus): > 46.6 µM
MIC (Pasteurella multocida): ≥ 46.6 µM

Structure (SMILES): CC[C@H](C)[C@H](NC(=O)[C@H](Cc1ccccc1)NC(=O)[C@H](CO)NC(=O)[C@H](CC(C)C)NC(=O)[C@@H](NC(=O)[C@H](CCCN=C(N)N)NC(=O)CN)[C@@H](C)CC)C(=O)N[C@@H](CCCCN)C(=O)NCC(=O)N[C@@H](CC(C)C)C(=O)N[C@@H](C)C(=O)N[C@@H](CCC(=O)O)C(=O)N[C@@H](Cc1cnc[nH]1)C(=O)N[C@@H](CC(C)C)C(N)=O [GRILSFIKGLAEHL]
MIC (Botrytis cinerea): 9.65 µM (≈ 15 µg/mL)
MIC [6]: ≥ 64.4 µM
MIC [7]: ≥ 64.4 µM
MIC [8]: 6.44 µM (≈ 9.99 µg/mL)

Structure (SMILES): CC[C@H](C)[C@H](NC(=O)[C@H](CC(C)C)NC(=O)[C@H](CCCCN)NC(=O)[C@@H](NC(=O)[C@@H](NC(=O)[C@H](Cc1cnc[nH]1)NC(=O)[C@@H]1CCCN1C(=O)[C@H](CC(C)C)NC(=O)[C@@H](NC(=O)[C@H](CCCCN)NC(=O)[C@H](C)NC(=O)[C@H](Cc1c[nH]c2ccccc12)NC(=O)[C@H](CC(C)C)NC(=O)[C@H](CO)NC(=O)[C@H](C)NC(=O)[C@H](CCSC)NC(=O)CN)C(C)C)C(C)C)C(C)C)C(=O)N[C@@H](CCCCN)C(=O)O [GMASLWAKVLPHVVKLIK]
MIC (Pseudomonas aeruginosa): 53.3 µM (≈ 106 µg/mL)
MIC (Bacillus subtilis 168): 4.7 µM (≈ 9.36 µg/mL)
MIC [9]: 1.7 µM (≈ 3.38 µg/mL)
MIC [10]: 8.7 µM (≈ 17.3 µg/mL)
MIC (Staphylococcus aureus): 6 µM (≈ 11.9 µg/mL)
MIC (Escherichia coli B): 2.3 µM (≈ 4.58 µg/mL)

Structure (SMILES): CC[C@H](C)[C@H](NC(=O)CNC(=O)[C@H](CC(C)C)NC(=O)[C@@H](NC(=O)[C@@H]1CCCN1C(=O)[C@@H](N)CCC(=O)O)[C@@H](C)CC)C(=O)N[C@H](C(=O)N[C@H](C(=O)N[C@@H](CO)C(=O)N[C@@H](CC(C)C)C(=O)N[C@@H](CC(C)C)C(=O)N[C@@H](CCCCN)C(=O)N[C@@H](CO)C(=O)N[C@@H](CC(C)C)C(N)=O)[C@@H](C)O)[C@@H](C)CC [EPILGIITSLLKSL]
MIC (Botrytis cinerea): 0.334 µM (≈ 0.5 µg/mL)
MIC [6]: ≥ 66.8 µM
MIC [7]: ≥ 66.8 µM
MIC [8]: 66.8 µM (≈ 99.9 µg/mL)

Structure (SMILES): CC[C@H](C)[C@H](NC(=O)CN)C(=O)N[C@@H](CCSC)C(=O)N[C@@H](CO)C(=O)N[C@@H](CO)C(=O)N[C@@H](CC(C)C)C(=O)N[C@@H](CCSC)C(=O)N[C@@H](CCCCN)C(=O)N[C@@H](CCCCN)C(=O)N[C@@H](CC(C)C)C(=O)N[C@@H](CCCCN)C(=O)N[C@@H](CCCCN)C(=O)N[C@@H](Cc1cnc[nH]1)C(=O)N[C@H](C(=O)N[C@@H](C)C(=O)N[C@@H](CCCCN)C(N)=O)[C@@H](C)CC [GIMSSLMKKLKKHIAK]
MIC [1]: 10 µM (≈ 18.1 µg/mL)
MIC (Pseudomonas aeruginosa): 17 µM (≈ 30.8 µg/mL)
MIC [17]: > 100 µM
MIC (Bacillus subtilis 168): 7 µM (≈ 12.7 µg/mL)
MIC [9]: 3 µM (≈ 5.44 µg/mL)
MIC [10]: 12 µM (≈ 21.7 µg/mL)
MIC [5]: 6.4 µM (≈ 11.6 µg/mL)
MIC (Staphylococcus aureus): > 100 µM
MIC (Escherichia coli B): 26 µM (≈ 47.1 µg/mL)

Other lines, results leading:

MIC (Escherichia coli BW25113): 4 µM (≈ 9.52 µg/mL)
Structure (SMILES): CC[C@H](C)[C@H](NC(=O)[C@@H]1CCCN1C(=O)[C@H](CCCN=C(N)N)NC(=O)[C@H](CCCN=C(N)N)NC(=O)[C@H](Cc1c[nH]c2ccccc12)NC(=O)[C@@H](N)CCCN=C(N)N)C(=O)N[C@@H](CCCN=C(N)N)C(=O)N[C@@H](CCCN=C(N)N)C(=O)N[C@@H](CCCN=C(N)N)C(=O)N1CCC[C@H]1C(=O)N[C@H](C(=O)N[C@@H](CCCN=C(N)N)C(=O)N1CCC[C@H]1C(=O)N1CCC[C@H]1C(=O)N[C@@H](Cc1ccccc1)C(=O)N[C@@H](Cc1ccc(O)cc1)C(=O)N[C@@H](CCCN=C(N)N)C(=O)O)[C@@H](C)CC [RWRRPIRRRPIRPPFYR]

MIC (Escherichia coli BW25113): 4 µM (≈ 9.44 µg/mL)
Structure (SMILES): CC[C@H](C)[C@H](NC(=O)[C@@H]1CCCN1C(=O)[C@H](CCCN=C(N)N)NC(=O)[C@H](CCCN=C(N)N)NC(=O)[C@H](Cc1c[nH]c2ccccc12)NC(=O)[C@@H](N)CCCN=C(N)N)C(=O)N[C@@H](CCCN=C(N)N)C(=O)N[C@@H](CCCN=C(N)N)C(=O)N[C@@H](CCCN=C(N)N)C(=O)N1CCC[C@H]1C(=O)N[C@H](C(=O)N[C@@H](CCCN=C(N)N)C(=O)N1CCC[C@H]1C(=O)N1CCC[C@H]1C(=O)N[C@@H](Cc1c[nH]c2ccccc12)C(=O)N[C@@H](Cc1ccc(O)cc1)C(=O)N1CCC[C@H]1C(=O)O)[C@@H](C)CC [RWRRPIRRRPIRPPWYP]

MIC (Escherichia coli K88): 4 µM (≈ 5.71 µg/mL)
MIC [2]: 16 µM (≈ 22.8 µg/mL)
MIC (Escherichia coli UB1005): 8 µM (≈ 11.4 µg/mL)
MIC [3]: 8 µM (≈ 11.4 µg/mL)
MIC [4]: 64 µM (≈ 91.3 µg/mL)
MIC [5]: 16 µM (≈ 22.8 µg/mL)
Structure (SMILES): CC(C)C[C@H](NC(=O)[C@H](Cc1c[nH]c2ccccc12)NC(=O)[C@H](CCCCN)NC(=O)[C@H](C)NC(=O)[C@H](C)NC(=O)[C@H](C)NC(=O)[C@H](CCCCN)NC(=O)[C@H](C)NC(=O)[C@H](C)NC(=O)[C@H](C)NC(=O)[C@H](CCCCN)NC(=O)[C@H](Cc1c[nH]c2ccccc12)NC(=O)[C@@H](N)CC(C)C)C(N)=O [LWKAAAKAAAKWL]

MIC [11]: ≥ 212 µM
MIC [4]: > 212 µM
MIC [12]: ≥ 212 µM
MIC [13]: ≥ 106 µM
MIC [14]: ≥ 212 µM
MIC [5]: > 212 µM
MIC [15]: ≥ 212 µM
MIC [16]: > 212 µM
Structure (SMILES): CC(C)C[C@H](NC(=O)[C@H](Cc1c[nH]c2ccccc12)NC(=O)[C@H](CCCCN)NC(=O)[C@H](CCCCN)NC(=O)[C@@H](N)CC(C)C)C(=O)N[C@@H](CCCCN)C(=O)N[C@@H](CCCCN)C(N)=O [LKKWLKK]

MIC (Pseudomonas aeruginosa): 43.3 µM (≈ 60.4 µg/mL)
MIC (Bacillus subtilis 168): 2 µM (≈ 2.79 µg/mL)
MIC [9]: 2.7 µM (≈ 3.77 µg/mL)
MIC [10]: 6 µM (≈ 8.37 µg/mL)
MIC (Staphylococcus aureus): 7.3 µM (≈ 10.2 µg/mL)
MIC (Escherichia coli B): 4.3 µM (≈ 6 µg/mL)
Structure (SMILES): CC[C@H](C)[C@H](NC(=O)[C@H](C)NC(=O)CNC(=O)[C@H](Cc1c[nH]c2ccccc12)NC(=O)[C@H](CC(N)=O)NC(=O)[C@@H](N)CC(C)C)C(=O)N[C@@H](CC(C)C)C(=O)N[C@@H](CCCCN)C(=O)N[C@@H](CCCCN)C(=O)N[C@H](C(=O)N[C@H](C(=O)N[C@@H](CCCCN)C(N)=O)[C@@H](C)CC)[C@@H](C)CC [LNWGAILKKIIK]

MIC (Escherichia coli K88): 2 µM (≈ 2.85 µg/mL)
MIC [2]: 8 µM (≈ 11.4 µg/mL)
MIC (Escherichia coli UB1005): 4 µM (≈ 5.71 µg/mL)
MIC [3]: 4 µM (≈ 5.71 µg/mL)
MIC [4]: 8 µM (≈ 11.4 µg/mL)
MIC [5]: 16 µM (≈ 22.8 µg/mL)
Structure (SMILES): CC(C)C[C@H](NC(=O)[C@H](CCCCN)NC(=O)[C@H](C)NC(=O)[C@H](C)NC(=O)[C@H](C)NC(=O)[C@H](CCCCN)NC(=O)[C@H](C)NC(=O)[C@H](C)NC(=O)[C@H](C)NC(=O)[C@H](CCCCN)NC(=O)[C@H](CC(C)C)NC(=O)[C@@H](N)Cc1c[nH]c2ccccc12)C(=O)N[C@@H](Cc1c[nH]c2ccccc12)C(N)=O [WLKAAAKAAAKLW]
